Data on 23 compounds can be found in patent US10889555B2, “Sulfonamide compound or salt thereof” (Taiho Pharmaceutical Co., Ltd., priority 2016, dated 2021).

The test deals with HCC 1806 cells. The test can be described thus: Cell proliferation inhibitory effect on human breast cancer cell line (crystal violet, 72 hours). The test is classed as cell-based. To be noted: Homo sapiens, HCC1806, 72 h, read-out: Cell growth suppression IC50. As for the experimental part:
Human derived breast cancer cell line HCC 1806 cells were daily passaged at a cell density not exceeding 80% in ATCC recommended Roswell Park Memorial Institute medium (RPMI-1640) containing 10% fetal bovine serum (FBS). In order to start the test of cell proliferation inhibitory activity, HCC 1806 cells were suspended in the above medium, after seeing at 180 μL in each well of a 96-well flat bottom plate so that the number of cells per well was 2,000, the cells were cultured at 37° C. for 1 day in an incubator containing 5% carbon dioxide gas. On the next day, the test compound was dissolved in DMSO, and 20 μL of a drug additive solution diluted serially with distilled water to 10 times of the final concentration was added to each well of the culture plate of the cells, and the cells were cultured at 37° C. for 72 hours in an incubator containing 5% carbon dioxide gas. After culturing for 72 hours, 20 μL of glutaraldehyde was added to each well and allowed to stand for 30 minutes, then the plate was washed 10 times with water and was dried. 100 μL of a stain solution (0.05% crystal violet in a 20% methanol solution) was added to each well and allowed to stand for 30 minutes, then the plate was washed 10 times with water and was dried. 100 μL of an extract solution (0.1 N NaH2PO4: 100% ethanol=1:1) was added to each well and mixed, and the mixture was measured at a wavelength of 540 nm using a plate reader (MTP-450 manufactured by Corona Electric Co., Ltd.). The growth inhibition rate was calculated from the following formula, and the concentration (IC50 (μM)) of a test compound inhibiting 50% was determined. Growth inhibition rate (%)={(C−B)−(T−B)}/(C−B)×100
T: Absorbance of well to which test compound was added
C: Absorbance of wells to which no test compound was added
B: Absorbance of wells to which no cell suspension was added
On to `Cc1ccc(F)c([C@@H](C)[C@H](NS(=O)(=O)c2ccc(Cl)c3c2OCCN3CC(F)F)c2n[nH]c(=O)o2)c1C` [Example 102, 5-chloro-4-(2,2-difluoroethyl)-N-((1S,2R)-2-(6-fluoro-2,3-dimethylphenyl)-1-(5-oxo-4,5-dihydro-1,3,4-oxadiazol-2-yl)propy1)-3,4-dihydro-2H-benzo[b][1,4]oxazine-8-sulfonamide], for which the IC50 (as a rule, the concentration needed to halve the response being measured) is 660 nM.
The value for `CC(=O)OC1(C(F)(F)F)CCOc2c1cccc2S(=O)(=O)N[C@H](c1n[nH]c(=O)o1)[C@H](C)c1c(F)ccc(C)c1C` (stereo partly drawn) [Example 106, 8-(N-((1S,2R)-2-(6-fluoro-2,3-dimethylphenyl)-1-(5-oxo-4,5-dihydro-1,3,4-oxadiazol-2-yl)propyl)sulfamoyl)-4-(tifluoromethyl)chroman-4-yl acetate] was 380 nM.
Consider `COC(=O)c1nc(S(=O)(=O)N[C@H](c2n[nH]c(=O)o2)[C@H](C)c2c(F)ccc(C)c2C)ccc1Cl` [Example 109, methyl 3-chloro-6-(N-((1S,2R)-2-(6-fluoro-2,3-dimethylphenyl)-1-(5-oxo-4,5-dihydro-1,3,4-oxadiazol-2-yl)propyl)sulfamoyl)picolinate], for which the IC50 was found to be 400 nM.
`Cc1ccc(F)c([C@@H](C)[C@H](NS(=O)(=O)c2ccc(Cl)c(C(=O)N3CCOCC3)n2)c2n[nH]c(=O)o2)c1C` [Example 113, 5-chloro-N-((1S,2R)-2-(6-fluoro-2,3-dimethylphenyl)-1-(5-oxo-4,5-dihydro-1,3,4-oxadiazol-2-yl)propyl)-6-(morpholine-4-carbonyl)pyridine-2-sulfonamide]: the 50% inhibitory concentration (IC50) came out at 600 nM.
With `Cc1ccc(F)c([C@@H](C)[C@H](NS(=O)(=O)c2ccc(Cl)c(C(=O)N3CCCC3)n2)c2n[nH]c(=O)o2)c1C` [Example 114, 5-chloro-N-((1S,2R) 2-(6-fluoro-2,3-dimethylphenyl)-1-(5-oxo-4,5-dihydro-1,3,4-oxadiazol-2-yl)propyl)-6-(pyrrolidine-1-carbonyl)pyridine-2-sulfonamide], the 50% inhibitory concentration (IC50) stood at 370 nM.
The value for `Cc1ccc(F)c([C@@H](C)[C@H](NS(=O)(=O)c2ccc(Cl)c(C(=O)N3C4CCC3COC4)n2)c2n[nH]c(=O)o2)c1C` [Example 116, 6-(3-oxa-8-azabicyclo[3.2.1]octane-8-carbonyl)-5-chloro-N-((1S,2R)-2-(6-fluoro-2,3-dimethylphenyl)-1-(5-oxo-4,5-dihydro-1,3,4-oxadiazol-2-yl)propyl)pyridine-2-sulfonamide] was 320 nM.
`Cc1ccc(F)c([C@@H](C)[C@H](NS(=O)(=O)c2ccc(Cl)c(C(=O)N3CC4CCC(C3)O4)n2)c2n[nH]c(=O)o2)c1C` [Example 117, 6-(8-oxa-3-azabicyclo[3.2.1]octane-3-carbonyl)-5-chloro-N-((1S,2R)-2-(6-fluoro-2,3-dimethylphenyl)-1-(5-oxo-4,5 dihydro-1,3,4-oxadiazol-2-yl)propyl)pyridine-2-sulfonamide]: the IC50 amounted to 310 nM.
Then `CC(=O)OC1(C(F)(F)F)CCOc2c(S(=O)(=O)N[C@H](c3n[nH]c(=O)o3)[C@H](C)c3c(F)ccc(C)c3C)ccc(Cl)c21` (stereo partly drawn) [Example 123, 5-chloro-8-(N-((1S,2R)-2-(6-fluoro-2,3-dimethylphenyl)-1-(5-oxo-4,5-dihydro-1,3,4-oxadiazol-2-yl)propyl)sulfamoyl)-4-(trifluoromethyl)chroman-4-yl acetate], with 170 nM; and `[2H]C([2H])([2H])C1(OC(C)=O)CCOc2c(S(=O)(=O)N[C@H](c3n[nH]c(=O)o3)[C@H](C)c3c(F)ccc(C)c3C)ccc(Cl)c21` (stereo partly drawn) [Example 129, 5-Chloro-8-(N-((1S,2R)-2-(6-fluoro-2,3-dimethylphenyl)-1-(5-oxo-4,5-dihydro-1,3,4-oxadiazol-2-yl)propyl)sulfamoyl)-4-methyl-d3-chroman-4-yl Acetate], with 80 nM.
Then `COc1c(S(=O)(=O)N[C@H](c2n[nH]c(=O)o2)[C@H](C)c2c(F)ccc(C)c2C)ccc(Cl)c1C(C)OC(C)=O` (stereo partly drawn) [Example 144, 1-(6-chloro-3-(N-((1S,2R)-2-(6-fluoro-2,3-dimethylphenyl)-1-(5-oxo-4,5-dihydro-1,3,4-oxadiazol-2-yl)propyl)sulfamoyl)-2-methoxyphenyl)ethyl acetate], with 960 nM; and `Cc1ccc(F)c([C@@H](C)[C@H](NS(=O)(=O)c2ccc(Cl)cc2OC(F)F)c2n[nH]c(=O)o2)c1C` [Example 146, 4-chloro-2-(difluoromethoxy)-N-((1S,2R)-2-(6-fluoro-2,3-dimethylphenyl)-1-(5-oxo-4,5-dihydro-1,3,4-oxadiazol-2-yl)propyl)benzenesulfonamide], with 830 nM.
The value for `CC(=O)c1cc(Cl)ccc1S(=O)(=O)N[C@H](c1n[nH]c(=O)o1)[C@H](C)c1c(F)ccc(C)c1C` [Example 147, 2-acetyl-4-chloro-N-((1S,2R)-2-(6-fluoro-2,3-dimethylphenyl)-1-(5 oxo-4,5-dihydro-1,3,4-oxadiazol-2-yl)propyl)benzenesulfonamide] was 650 nM; that for `COc1nc(Cl)ccc1S(=O)(=O)N[C@H](c1n[nH]c(=O)o1)[C@H](C)c1c(F)ccc(C)c1C` [Example 148] was 400 nM; that for `Cc1ccc(F)c([C@@H](C)[C@H](NS(=O)(=O)c2ccc(Cl)c3cccnc23)c2n[nH]c(=O)o2)c1C` [Example 153, 5-chloro-N-((1S,2R)-2-(6-fluoro-2,3-dimethylphenyl)-1-(5-oxo-4,5-dihydro-1,3,4-oxadiazol-2-yl)propyl)quinoline-8-sulfonamide] was 910 nM.
With `Cc1ccc(F)c([C@@H](C)[C@H](NS(=O)(=O)c2ccc(Cl)c(C(=O)N3CCC4(CC3)COC4)n2)c2n[nH]c(=O)o2)c1C` [Example 156, 5-chloro-N-((1S,2R)-2-(6-fluoro-2,3-dimethylphenyl)-1-(5-oxo-4,5-dihydro-1,3,4-oxadiazol-2-yl)propyl)-6-(2-oxa-7-azaspiro[3.5]nonane-7-carbonyl)pyridine-2-sulfonamide], the IC50 was determined as 870 nM.
As to `CC(=O)NC1CCOc2c(S(=O)(=O)N[C@H](c3n[nH]c(=O)o3)[C@H](C)c3c(F)ccc(C)c3C)ccc(Cl)c21` (stereo partly drawn) [Example 157, N-(5-chloro-8-(N-((1S,2R)-2-(6-fluoro-2,3-dimethylphenyl)-1-(5-oxo-4,5-dihydro-1,3,4-oxadiazol-2-yl)propyl)sulfamoyl)chroman-4-yl)acetamide], the half-maximal inhibitory concentration (IC50) was found to be 370 nM.
For `CC(=O)OC1(C)CCOc2c(S(=O)(=O)N[C@H](c3n[nH]c(=O)o3)[C@H](C)c3c(F)ccc(Br)c3C)ccc(Cl)c21` (stereo partly drawn) [Example 167, 8-(N-((1S,2R)-2-(3-bromo-6-fluoro-2-methylphenyl)-1-(5-oxo-4,5-dihydro-1,3,4-oxadiazol-2-yl)propyl)sulfamoyl)-5-chloro-4-methylchroman-4-yl-acetate], the IC50 came to 140 nM.
The value for `Cc1ccc(F)c([C@@H](C)[C@H](NS(=O)(=O)c2ccc(F)c(C(C)(C)O)c2F)c2n[nH]c(=O)o2)c1C` [Example 186, 2,4-difluoro-N-((1S,2R)-2-(6-fluoro-2,3-dimethylphenyl)-1-(5-oxo-4,5-dihydro-1,3,4-oxadiazol-2-yl)propyl)-3-(2-hydroxypropan-2-yl)benzenesulfonamide] was 640 nM; that for `Cc1ccc(F)c([C@@H](C)[C@H](NS(=O)(=O)c2ccc(Cl)c(C(C)(C)O)n2)c2n[nH]c(=O)o2)c1C` [Example 193, 5-chloro-N-((1S,2R)-2-(6-fluoro-2,3-dimethylphenyl)-1-(5-oxo-4,5-dihydro-1,3,4-oxadiazol-2-yl)propyl)-6-(2-hydroxypropan-2-yl)pyridine-2-sulfonamide] was 110 nM.
`Cc1ccc(F)c([C@@H](C)[C@H](NS(=O)(=O)c2cc(C(C)(C)O)c(F)cc2C(N)=O)c2n[nH]c(=O)o2)c1C` [Example 196, 5-fluoro-2-(N-((1S,2R)-2-(6-fluoro-2,3-dimethylphenyl)-1-(5-oxo-4,5-dihydro-1,3,4-oxadiazol-2-yl)propyl)sulfamoyl)-4-(2-hydroxypropan-2-yl)benzamide]: the half-maximal inhibitory concentration (IC50) came out at 320 nM.
Then `Cc1ccc(F)c([C@@H](C)[C@H](NS(=O)(=O)c2cc(C(C)(C)O)ccc2C(N)=O)c2n[nH]c(=O)o2)c1C` [Example 197, 2-(N-((1S,2R)-2-(6-fluoro-2,3-dimethylphenyl)-1-(5-oxo-4,5-dihydro-1,3,4-oxadiazol-2-yl)propyl)sulfamoyl)-4-(2-hydroxypropan-2-yl)benzamide], with 410 nM.
With `Cc1ccc(F)c([C@@H](C)[C@H](NS(=O)(=O)c2cc(C(C)(C)O)c(Cl)cc2C(N)=O)c2n[nH]c(=O)o2)c1C` [Example 198, 5-chloro-2-(N-((1S,2R)-2-(6-fluoro-2,3-dimethylphenyl)-1-(5-oxo-4,5-dihydro-1,3,4-oxadiazol-2-yl)propyl)sulfamoyl)-4-(2-hydroxypropan-2-yl)benzamide], the IC50 is 50 nM.
For `COc1c(S(=O)(=O)N[C@H](c2n[nH]c(=O)o2)[C@H](C)c2cccc(C)c2C)ccc(Cl)c1C(C)O` (stereo partly drawn) [Example 203, 4-chloro-N-((1S,2R)-2-(2,3-dimethylphenyl)-1-(5-oxo-4,5-dihydro-1,3,4-oxadiazol-2-yl)propyl)-3-(1-hydroxyethyl)-2-methoxybenzenesulfonamide], the IC50 was determined as 810 nM.
